≈ marks a conversion by molar mass, not a printed value.
How the values were obtained:
MGAT3 [1] = assay: MGAT3 gene expression by qPCR in U-937 human monocytic cells treated with curcumins plus Aβ; assay type: cell-based; details: human monocytic cells (U-937), curcumin plus Aβ
Experimental: (§1) Cell culture conditions for monocytic cell lines. Human and mouse monocyte cell lines are grown in RPMI-1640 medium with 10% fetal bovine serum (FBS), plus glutamine and pen/strep. For treatment with compounds (curcuminoids+/−Aβ), replicate sets of 0.5-1.0 mL cultures containing 1-2×10^6 cells are set up in the wells of 48-well tissue culture plates. Both replicate sets have at least one control well receiving no added curcuminoid to provide baseline expression controls for untreated, and Aβ-only treated cells. Remaining wells receive curcuminoid in a range of 10-fold serial dilutions in DMSO, typically from […] Cultures are incubated for 20-24 hours (“overnight”) at 37° C. in atmosphere with 5% CO2. After one overnight, to one of replicate sets of cultures is added Aβ (1-42) peptide to a final concentration of 5 μg/mL.
(§2) RNA isolation and cDNA synthesis. After the first overnight incubation in the presence of curcuminoid, cells from one replicate set of wells are collected by centifugation. RNAs are extracted from pelleted cells using miniprep column kits following manufacturer's protocol for animal cells. […] of total cellular RNA from each well is quantitated using a Nanodrop spectrophotometer, and first-strand total cDNA is prepared from 0.3-1.0 μg RNA by random-hexamer priming. Following the second 20 hr. incubation in the presence of Aβ, RNA extractions and cDNA synthesis are similarly performed.
Assay development. Gene-specific mRNA levels are determined using a real-time thermocycler, and by normalizing to expression of one or more control genes. Assays for quantifying mRNA levels are based on gene sequences reported in NCBI Genbank. PCR oligonucleotide primers are selected spanning introns to minimize the opportunity for amplication from any contaminating genomic DNA in the RNA preps. Oligonucleotides are typically tested and used at a concentration of 200 nM in qPCR reactions containing SYBR dye. Control reactions include template from cDNA synthesis reactions either + or − reverse transcriptase (RT), as well as no-template controls (ntc). […] Melt curves based on incremental 0.5° C. increases are determined for new assays to test for uniformity of amplified products. […]
qPCR reactions of cultured monocyte cDNAs. […] SYBR-Green reactions were run on a Continuous Fluorescence real-time thermocycler and analyzed. Cycle threshold (Ct) values are recorded for each replicate reaction, and are then averaged and normalized against mean Ct values from one or more control genes. Fold-expression differences relative to untreated cells are determined using the 2^−ΔΔCt method as previously described. […] Data are also evaluated for each gene with regard to sensitivity, maximally effective concentration of curcuminoid, response to Aβ, and overall magnitude of fold-expression changes. […]

TLR2 = TLR2 gene expression by qPCR in U-937 human monocytic cells treated with curcumins plus Aβ; assay type: cell-based; details: human monocytic cells (U-937), curcumin plus Aβ
Experimental: as §1, §2
(§3) Assay development. Gene-specific mRNA levels are determined using a real-time thermocycler, and by normalizing to expression of one or more control genes. Assays for quantifying mRNA levels are based on gene sequences reported in NCBI Genbank. PCR oligonucleotide primers are selected spanning introns to minimize the opportunity for amplication from any contaminating genomic DNA in the RNA preps. Oligonucleotides are typically tested and used at a concentration of 200 nM in qPCR reactions containing SYBR dye. Control reactions include template from cDNA synthesis reactions either + or − reverse transcriptase (RT), as well as no-template controls (ntc). All reactions are performed in triplicate. Reactions are typically run with 40 cycles of 95° C. (10 sec) and 58° C. (30 sec). Melt curves based on incremental 0.5° C. increases are determined for new assays to test for uniformity of amplified products. Reaction conditions are modified as needed depending on initial test results. ‘Working’ assays are selected based on clear RNA-dependent amplification and absence of product in ‘ntc’ reactions. The following assay primers are used: […]
(§4) qPCR reactions of cultured monocyte cDNAs. One μL total cellular cDNA per reaction is used in triplicate reactions for each test gene, and for each culture treatment. SYBR-Green reactions were run on a Continuous Fluorescence real-time thermocycler and analyzed. Cycle threshold (Ct) values are recorded for each replicate reaction, and are then averaged and normalized against mean Ct values from one or more control genes. Fold-expression differences relative to untreated cells are determined using the 2^−ΔΔCt method as previously described. […] Data are also evaluated for each gene with regard to sensitivity, maximally effective concentration of curcuminoid, response to Aβ, and overall magnitude of fold-expression changes. […]

TLR3 = TLR3 gene expression by qPCR in U-937 human monocytic cells treated with curcumins plus Aβ; assay type: cell-based; details: for Relative gene expression TLR3, increased expression relative to control cells: human monocytic cells (U-937), curcumin plus Aβ
Experimental: as §1, §2, §3
(§5) qPCR reactions of cultured monocyte cDNAs. One μL total cellular cDNA per reaction is used in triplicate reactions for each test gene, and for each culture treatment. SYBR-Green reactions were run on a Continuous Fluorescence real-time thermocycler and analyzed. Cycle threshold (Ct) values are recorded for each replicate reaction, and are then averaged and normalized against mean Ct values from one or more control genes. Fold-expression differences relative to untreated cells are determined using the 2^−ΔΔCt method as previously described. Data from the curcumin concentration range are plotted in order to determine EC50 values (concentrations producing one-half maximal stimulant activity), which are used for comparisons of potency between different compounds. Data are also evaluated for each gene with regard to sensitivity, maximally effective concentration of curcuminoid, response to Aβ, and overall magnitude of fold-expression changes.
(§6) Data showing in vitro up-regulation of genes associated with Aβ phagocytosis in response to curcumins. Natural curcumins and synthetic analogs were tested in U-937 human monocyte cells in vitro for their ability to modulate expression of the genes MGAT3 and TLRs −2, −3, and −4. […]

TLR4 = TLR4 gene expression by qPCR in U-937 human monocytic cells treated with curcumins plus Aβ; assay type: cell-based; details: human monocytic cells (U-937), curcumin plus Aβ
Experimental: as §1, §2, §3, §4

VDR = VDR gene expression by qPCR in U-937 human monocytic cells treated with curcumins plus Aβ; assay type: cell-based; details: for Relative gene expression VDR, increased expression relative to control cells: human monocytic cells (U-937), curcumin plus Aβ
Experimental: as §1, §2, §3, §5, §6

[2] = Metabolic stability in human liver microsomes; assay type: in vitro ADME; details: human, read-out: Half life, t1/2 HLM
[3] = Metabolic stability in human S9 fraction; assay type: in vitro ADME; details: read-out: Half life, t1/2 S9
[4] = Chemical stability (H2O, pH 7.4); assay type: physicochemical
Average permeability = assay type: in vitro ADME; details: not told
Average solubility = assay type: physicochemical
MGAT3 [5] = assay: MGAT3 transcription ratio, AD patient / control PBMCs (qPCR); assay type: cell-based, human; details: Aβ stimulation
Experimental: as §5
(§7) MGAT3 and/or TLR transcription were tested by qPCR in human monocyte cells treated with curcuminoids and compared the results to those treated with vehicle (Table 7). As discussed above, activation or up-regulation of macrophage MGAT3 or TLR's results in many functional outcomes, including the enhancement of […] and removal of Aβ, increased apoptosis, secretion of inflammatory cytokines, and other anti-AD antimicrobial activities. […] Thus, the ratio of MGAT3 or TLR transcription upon Aβ stimulation of human monocytes versus vehicle treatment provides an indicator and sensitive method to test the in vitro efficacy of drug candidates. […] The relative biological activity of the curcumin analogs in AD patient and control cells was ascertained in the in vitro Aβ assay described above (see Example 2).

TLR 2 = TLR 2 transcription ratio, AD patient / control PBMCs (qPCR); assay type: cell-based, human; details: Aβ stimulation
Experimental: as §5, §7

TLR 3 = TLR 3 transcription ratio, AD patient / control PBMCs (qPCR); assay type: cell-based, human; details: Aβ stimulation
Experimental: as §5, §7

TLR 4 = TLR 4 transcription ratio, AD patient / control PBMCs (qPCR); assay type: cell-based, human; details: Aβ stimulation
Experimental: as §5, §7

half-life [2] [min] | half-life [3] [min] | Papp (Average permeability) [×10⁻⁶ cm/s] | Solubility compared with parent compounds (in words) (Average solubility) | solubility (Average solubility) [µg/mL] | SMILES | Relative gene expression MGAT3, increased expression relative to control cells (MGAT3 [1]) | Relative gene expression TLR2, increased expression relative to control cells (TLR2) | Relative gene expression TLR3, increased expression relative to control cells (TLR3) | Relative gene expression TLR4, increased expression relative to control cells (TLR4) | Relative gene expression VDR, increased expression relative to control cells (VDR) | other results
23.8 | 5.9 | 316 | significantly improved solubility | 18.2 (≈ 35.9 µM) | CC(C)C(N)C(=O)Oc1ccc(/C=C/C(=O)/C=C(O)/C=C/c2ccc(OC(=O)C(N)C(C)C)cc2)cc1 (stereo not shown) [Compound 33, 4,4′-(3,5-Dioxohepta-1,6-diene-1,7-diyl)bis(4,1-phenylene) bis(2-amino-3-methylbutanoate)] | +++ ((+++) >40-fold) | + ((+) <20-fold) | + ((+) <20-fold) | + ((+) <20-fold) | ++ ((++) >20-fold) | TLR3 expression response (in words) (TLR3; U-937, plus Aβ (FIG. 3)): limited response; VDR normalized expression response (in words) (VDR; human monocytes, plus Aβ): somewhat higher expression; half-life ([4]; water (aqueous solution), pH 7.4, value given in h, read-out: Chemical stability t1/2 pH 7.4 (converted)): 60 min; half-life ([4]; water, H2O, value given in h, read-out: Chemical stability t1/2 H2O (converted)): 1130 min; IC50 (Anti-oxidant activity): > 250 µM; Relative ratio of MGAT3 transcription in AD patient / control PBMC's (MGAT3 [5]): + ((+) indicates a ratio of 1.0-1.5); Relative ratio of TLR 2 transcription in AD patient / control PBMC's (TLR 2): TLR 2 ++ ((++) indicates a ratio of 1.5-2.0); Relative ratio of TLR 3 transcription in AD patient / control PBMC's (TLR 3): TLR 3 ++ ((++) indicates a ratio of 1.5-2.0); Relative ratio of TLR 4 transcription in AD patient / control PBMC's (TLR 4): TLR 4 + ((+) indicates a ratio of 1.0-1.5)
19.9 | 4.5 | 718 | significantly improved solubility | 30.6 (≈ 49 µM) | COc1cc(/C=C/C(=O)/C=C(O)/C=C/c2ccc(OC(=O)C(N)CCCCN)c(OC)c2)ccc1OC(=O)C(N)CCCCN (stereo not shown) [Compound 36, 4,4′-(3,5-dioxohepta-1,6-diene-1,7-diyl)bis(2-methoxy-4,1-phenylene)bis(2,6-diaminohexanoate)] | + ((+) <20-fold) | + ((+) <20-fold) | + ((+) <20-fold) | + ((+) <20-fold) | + ((+) <20-fold) | Chemical stability pH 7.4 (stable/unstable) ([4]; pH 7.4): unstable (stability half-lives less than 5 minutes); half-life ([4]; water, H2O, read-out: Chemical stability t1/2 H2O (converted)): 10.2 min
